Results reported in patent publication US10294202B2, “Pyrrolidinones as herbicides” (FMC Corporation, priority 2013, dated 2019).

Assays:
barnyardgrass = assay: Test C flooded paddy test; format: in vivo, Echinochloa crus-galli; details: Flood
Outline: (§1)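 2-leaf stage; flood 3 cm over soil; compound into paddy water; depth held; greenhouse 13–15 d; visual % control vs untreated (0 = none, 100 = complete); "-" = not tested.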

rice = assay: Test C flooded paddy test; format: in vivo, Oryza sativa; details: Flood
Outline: as §1

crabgrass, large = assay: Test A pre-/postemergence herbicide test; format: in vivo, Digitaria sanguinalis
Outline: (§2)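 Formulated compound (non-phytotoxic solvent, surfactant) sprayed pre- onto soil of seeded loam/sand pots or post- onto seedlings at 1–2 leaves; ~10 d greenhouse; 0–100 visual control rating versus untreated.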

sedge, umbrella = assay: Test C flooded paddy test; format: in vivo, Cyperus difformis; details: Flood
Outline: as §1

velvetleaf = assay: Test A pre-/postemergence herbicide test; format: in vivo, Abutilon theophrasti; details: for Plant response rating, Velvetleaf: 500 g ai/ha
Outline: as §2

morningglory = assay: Test A pre-/postemergence herbicide test; format: in vivo, Ipomoea spp.; details: for Plant response rating, Morningglory: 500 g ai/ha
Outline: as §2

ducksalad = assay: Test C flooded paddy test; format: in vivo, Heteranthera limosa; details: Flood
Outline: as §1

ragweed = assay: Test A pre-/postemergence herbicide test; format: in vivo, Ambrosia elatior
Outline: as §2

kochia = assay: Test A pre-/postemergence herbicide test; format: in vivo, Kochia scoparia
Outline: as §2

galium = assay: Test A postemergence herbicide test; format: in vivo, Galium aparine
Outline: (§3)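 Young potted plants in a loam–sand mix, one- to two-leaf stage and 2–10 cm tall, receive the test chemical postemergence and stay in a greenhouse for approximately 10 days. Injury is then judged by eye against untreated plants, scored 0 (none) to 100 (complete control).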

blackgrass = assay: Test A postemergence herbicide test; format: in vivo, Alopecurus myosuroides
Outline: as §3

[1] = 31 g ai/ha, scale of 0 to 100 where 0 is no effect and 100 is complete control, 13 to 15 days
[2] = 62 g ai/ha, scale of 0 to 100 where 0 is no effect and 100 is complete control, 13 to 15 days
[3] = 125 g ai/ha, scale of 0 to 100 where 0 is no effect and 100 is complete control, 13 to 15 days
[4] = Postemergence, 500 g ai/ha, 0 to 100 scale (0 no effect, 100 complete control)
[5] = Preemergence, 125 g ai/ha, visual rating on 0 to 100 scale (0 no effect, 100 complete control)
[6] = Postemergence, 0 to 100 scale (0 no effect, 100 complete control)
[7] = Postemergence, 125 g ai/ha, visual rating on 0 to 100 scale (0 no effect, 100 complete control), approx. 10 days
[8] = Preemergence, 125 g ai/ha, 0 to 100 scale where 0 is no effect and 100 is complete control
[9] = Preemergence, 500 g ai/ha, visual rating on 0 to 100 scale (0 no effect, 100 complete control)
[10] = 125 g ai/ha, visual rating on 0 to 100 scale (0 no effect, 100 complete control), approx. 10 days
[11] = 500 g ai/ha, 0 to 100 scale (0 no effect, 100 complete control)
[12] = preemergence, 500 g ai/ha, 0 to 100 scale, 0 is no effect and 100 is complete control
[13] = 125 g ai/ha, 0 to 100 scale, 0 is no effect, 100 is complete control

Compound: O=C1NCC(c2cccc(C(F)(F)F)c2)C1C(=O)Nc1ccccc1F (racemic) [Compound 3]
- Plant response rating, Barnyardgrass (barnyardgrass; [1]): 0
- Plant response rating, Barnyardgrass (barnyardgrass; [2]): 20
- Plant response rating, Barnyardgrass (barnyardgrass; [3]): 40
- Plant response rating, Barnyardgrass (barnyardgrass; 250 g ai/ha, scale 0 to 100): 55
- Plant response rating, Rice (rice; [1]): 0
- Plant response rating, Rice (rice; [2]): 0
- Plant response rating, Rice (rice; [3]): 0
- Plant response rating, Rice (rice; 250 g ai/ha, scale 0 to 100): 0
- Plant response rating, Crabgrass, Large (crabgrass, large; Postemergence, 125 g ai/ha, 0 to 100 scale, 0 no effect, 100 complete control): 70
- Plant response rating, Crabgrass, Large (crabgrass, large; [4]): 80
- Crabgrass, Large plant response rating (crabgrass, large; [5]): 90
- Plant response rating, Crabgrass, Large (crabgrass, large; preemergence, 500 g ai/ha, 0 to 100 scale): 90
- Plant response rating, Sedge, Umbrella (sedge, umbrella; [1]): 0
- Plant response rating, Sedge, Umbrella (sedge, umbrella; [2]): 0
- Plant response rating, Sedge, Umbrella (sedge, umbrella; [3]): 0
- Plant response rating, Sedge, Umbrella (sedge, umbrella; 250 g ai/ha, scale 0 to 100): 50
- Plant response rating, Velvetleaf (velvetleaf; [6]): 0
- Velvetleaf plant response rating (velvetleaf; [5]): 0
- Plant response rating, Velvetleaf (velvetleaf; preemergence, 0 to 100 scale): 0
- Plant response rating, Morningglory (morningglory; [6]): 30
- Morningglory plant response rating (morningglory; [5]): 0
- Plant response rating, Morningglory (morningglory; preemergence, 0 to 100 scale): 0
- Plant response rating, Ducksalad (ducksalad; [1]): 40
- Plant response rating, Ducksalad (ducksalad; [2]): 60
- Plant response rating, Ducksalad (ducksalad; [3]): 85
- Plant response rating, Ducksalad (ducksalad; 250 g ai/ha, scale 0 to 100): 90

Compound: O=C1NCC(c2cccc(Br)c2)C1C(=O)Nc1cccc(F)c1F (centres unmarked) [Compound 309]
- Plant response rating, Ragweed (ragweed; [7]): 0
- Plant response rating, Ragweed (ragweed; [4]): 0
- Plant response rating, Ragweed (ragweed; [8]): 0
- Plant response rating, Kochia (kochia; [7]): 0
- Plant response rating, Kochia (kochia; [4]): 0
- Plant response rating, Kochia (kochia; [8]): 0
- Kochia plant response rating (kochia; [9]): 0
- Plant response rating, Galium (galium; [10]): 60
- Plant response rating, Galium (galium; [11]): 70
- Plant response rating, Blackgrass (blackgrass; [10]): 60
- Plant response rating, Blackgrass (blackgrass; [11]): 70

Compound: O=C1NCC(c2cc(F)cc(F)c2)C1C(=O)Nc1ccc(F)cc1F (racemic) [Compound 278]
- Plant response rating, Ragweed (ragweed; [7]): 0
- Plant response rating, Ragweed (ragweed; [4]): 0
- Plant response rating, Ragweed (ragweed; [8]): 0
- Plant response rating, Ragweed (ragweed; [12]): 0
- Plant response rating, Kochia (kochia; Postemergence, 125 g ai/ha, 0 to 100 scale, 0 is no effect, 100 is complete control): 0
- Plant response rating, Kochia (kochia; [4]): 0
- Plant response rating, Kochia (kochia; [8]): 0
- Plant response rating, Kochia (kochia; [12]): 0
- Plant response rating, Galium (galium; [13]): 40
- Plant response rating, Galium (galium; [11]): 50
- Plant response rating, Blackgrass (blackgrass; [13]): 30
- Plant response rating, Blackgrass (blackgrass; [11]): 60

Compound: O=C1NCC(c2cccc(Br)c2)C1C(=O)Nc1ccccc1F (centres unmarked) [Compound 307]
- Plant response rating, Ragweed (ragweed; [7]): 0
- Plant response rating, Ragweed (ragweed; [4]): 0
- Plant response rating, Ragweed (ragweed; [8]): 0
- Ragweed plant response rating (ragweed; [9]): 0
- Plant response rating, Kochia (kochia; [7]): 0
- Plant response rating, Kochia (kochia; [4]): 0
- Plant response rating, Kochia (kochia; [8]): 0
- Kochia plant response rating (kochia; [9]): 0
- Plant response rating, Galium (galium; [10]): 0
- Plant response rating, Galium (galium; [11]): 0
- Plant response rating, Blackgrass (blackgrass; [10]): 30
- Plant response rating, Blackgrass (blackgrass; [11]): 70

Compound: CN1CC(c2ccc(C(F)(F)F)cc2)C(C(=O)Nc2ccccc2F)C1=O (centres unmarked) [Compound 304]
- Plant response rating, Ragweed (ragweed; [7]): 0
- Plant response rating, Ragweed (ragweed; [4]): 20
- Plant response rating, Ragweed (ragweed; [8]): 0
- Plant response rating, Kochia (kochia; [7]): 10
- Plant response rating, Kochia (kochia; [4]): 80
- Kochia plant response rating (kochia; [9]): 70
- Plant response rating, Galium (galium; [10]): 20
- Plant response rating, Galium (galium; [11]): 60
- Plant response rating, Blackgrass (blackgrass; [10]): 50
- Plant response rating, Blackgrass (blackgrass; [11]): 70
